Laboratory results taken from patent US10647713B2 (Nimbus Lakshmi, Inc., priority 2016, dated 2020).

target: human TYK2 (JH2domain-pseudokinase) (Homo sapiens (Human), UniProt P29597); experiment: TYK2 JH2 Domain Binding Assay (KINOMEscan, DiscoveRx); conditions: 11-point dilution, duplicate
Method in brief: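 Kd from duplicate 11-point 3-fold dilutions starting at 30,000 nM, fitted by Hill equation with slope fixed at −1. Compounds (final 0.9% DMSO) displace DNA-tagged HEK293-expressed TYK2 JH2 fusion (<0.1 nM) from ligand-coated beads over 1 h at room temperature; eluted kinase read by qPCR.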

Chain of human TYK2 (JH2domain-pseudokinase) (P29597 556-888): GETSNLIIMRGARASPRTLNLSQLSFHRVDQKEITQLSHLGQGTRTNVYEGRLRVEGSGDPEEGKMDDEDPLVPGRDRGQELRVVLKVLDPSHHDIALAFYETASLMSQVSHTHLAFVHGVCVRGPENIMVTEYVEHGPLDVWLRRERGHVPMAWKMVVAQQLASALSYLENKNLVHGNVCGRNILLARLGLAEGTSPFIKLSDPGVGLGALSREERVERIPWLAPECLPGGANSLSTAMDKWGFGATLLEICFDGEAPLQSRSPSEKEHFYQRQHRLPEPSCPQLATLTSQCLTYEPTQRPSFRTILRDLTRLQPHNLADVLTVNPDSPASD

Kd	Structure (SMILES)
0.5 to 1 nM	Cc1nc2c(Nc3ccc([C@H]4CCCO4)cc3S(C)(=O)=O)cc(NC(=O)C3CC3(F)F)nc2[nH]1 (stereo partly drawn) [I-340, 2,2-difluoro-N-(2-methyl-7-((2-(methylsulfonyl)-4-((R)-tetrahydrofuran-2-yl)phenyl)amino)-3H-imidazo[4,5-b]pyridin-5-yl)cyclopropane-1-carboxamide]
0.5 to 1 nM	Cc1cc(-c2ccc(Nc3cc(NC(=O)[C@@H]4CC4(F)F)nc4[nH]c(C(F)F)nc34)c(S(C)(=O)=O)c2)nn1C [I-313, (S)—N-(2-(difluoromethyl)-7-((4-(1,5-dimethyl-1H-pyrazol-3-yl)-2-(methylsulfonyl)phenyl)amino)-3H-imidazo[4,5-b]pyridin-5-yl)-2,2-difluorocyclopropane-1-carboxamide]
0.1 to 0.5 nM	Cc1nc2c(Nc3ccccc3N(C)S(=O)(=O)C3CC3)cc(Nc3cccc(C#N)n3)nc2[nH]1 [I-180, N-(2-((5-((6-cyanopyridin-2-yl)amino)-2-methyl-3H-imidazo[4,5-b]pyridin-7-yl)amino)phenyl)-N-methylcyclopropanesulfonamide]
0.5 to 1 nM	COc1c(Nc2cc(Nc3cc(C)cc(C#N)n3)nc3[nH]c(C(F)F)nc23)cccc1-c1nnn(C)n1 [I-32, 6-((2-(difluoromethyl)-7-((2-methoxy-3-(2-methyl-2H-tetrazol-5-yl)phenyl)amino)-3H-imidazo[4,5-b]pyridin-5-yl)amino)-4-methylpicolinonitrile]
0.1 to 0.5 nM	CS(=O)(=O)c1cc(-c2ccn(C3CCOCC3)n2)ccc1Nc1cc(NC(=O)C2CC2)nc2[nH]c(C(F)F)nc12 [I-522]
1 to 10 nM	Cc1nc2c(Nc3ccc(C4CC(C)(C)OC(C)(C)C4)cc3S(C)(=O)=O)cc(NC(=O)C3CC3)nc2[nH]1 [I-357]
0.1 to 0.5 nM	Cc1nc2c(Nc3ccc(-c4c(C)nn(C)c4C)cc3S(C)(=O)=O)cc(NC(=O)C3CC3)nc2[nH]1 [I-447, N-(2-methyl-7-((2-(methylsulfonyl)-4-(1,3,5-trimethyl-1H-pyrazol-4-yl)phenyl)amino)-3H-imidazo[4,5-b]pyridin-5-yl)cyclopropanecarboxamide]
< 0.1 nM	Cc1nc2c(Nc3ccccc3S(C)(=O)=O)cc(Nc3ccc(OC4CCOCC4)c(C#N)n3)nc2[nH]1 [I-624, 6-((2-methyl-7-((2-(methylsulfonyl)phenyl)amino)-3H-imidazo[4,5-b]pyridin-5-yl)amino)-3-((tetrahydro-2H-pyran-4-yl)oxy)picolinonitrile]
< 0.1 nM	CN=S(C)(=O)c1cc(-c2nn(C)cc2C)ccc1Nc1cc(NC(=O)C2CC2)nc2[nH]c(C(F)F)nc12 (centres unmarked) [I-641]
0.1 to 0.5 nM	CS(=O)(=O)c1cc([C@@H]2CCCCO2)ccc1Nc1cc(Nc2cc3n(n2)CCOC3)nc2[nH]c(C(F)F)nc12 [I-516, (S)-2-(difluoromethyl)-N5-(6,7-dihydro-4H-pyrazolo[5,1-c][1,4]oxazin-2-yl)-N7-(2-(methylsulfonyl)-4-(tetrahydro-2H-pyran-2-yl)phenyl)-3H-imidazo[4,5-b]pyridine-5,7-diamine]
0.1 to 0.5 nM	Cc1nc2c(Nc3ccccc3N(C)S(C)(=O)=O)cc(Nc3cnc(C)c(C)n3)nc2[nH]1 [I-123, N-(2-((5-((5,6-dimethylpyrazin-2-yl)amino)-2-methyl-3H-imidazo[4,5-b]pyridin-7-yl)amino)phenyl)-N-methylmethanesulfonamide]
0.5 to 1 nM	COc1cc(C(=O)N2CCC2)ccc1Nc1cc(NC(=O)C2CC2)nc2[nH]c(C(F)F)nc12 [I-16, N-(7-((4-(azetidine-1-carbonyl)-2-methoxyphenyl)amino)-2-(difluoromethyl)-3H-imidazo[4,5-b]pyridin-5-yl)cyclopropanecarboxamide]
0.1 to 0.5 nM	[2H]C([2H])([2H])S(=O)(=O)N(C)c1ccccc1Nc1cc(Nc2cc(C)nc(C)n2)nc2[nH]c(C(F)F)nc12 [I-448, N-(2-((2-(difluoromethyl)-5-((2,6-dimethylpyrimidin-4-yl)amino)-3H-imidazo[4,5-b]pyridin-7-yl)amino)phenyl)-N-methylmethanesulfonamide-d3]
0.1 to 0.5 nM	CS(=O)(=O)c1cc(F)ccc1Nc1cc(Nc2ccc(OC3CCOCC3)c(C#N)n2)nc2[nH]c(C(F)F)nc12 [I-625, 6-((2-(difluoromethyl)-7-((4-fluoro-2-(methylsulfonyl)phenyl)amino)-3H-imidazo[4,5-b]pyridin-5-yl)amino)-3-((tetrahydro-2H-pyran-4-yl)oxy)picolinonitrile]
< 0.1 nM	Cc1nc2c(Nc3ccc(-c4cncn4C)cc3S(C)(=O)=O)cc(NC(=O)[C@@H]3C[C@@H]3F)nc2[nH]1 [I-260, (1S,2S)-2-fluoro-N-(2-methyl-7-((4-(1-methyl-1H-imidazol-5-yl)-2-(methylsulfonyl)phenyl)amino)-3H-imidazo[4,5-b]pyridin-5-yl)cyclopropane-1-carboxamide]
0.1 to 0.5 nM	Cc1nc2c(Nc3ccccc3N(C)S(C)(=O)=O)cc(Nc3ccc(C)c(C#N)n3)nc2[nH]1 [I-125, N-(2-((5-((6-cyano-5-methylpyridin-2-yl)amino)-2-methyl-3H-imidazo[4,5-b]pyridin-7-yl)amino)phenyl)-N-methylmethanesulfonamide]
1 to 10 nM	COc1c(Nc2cc(NC(=O)C3CC3)nc3[nH]c(C(F)F)nc23)cccc1-c1nc(C)cs1 [I-320, N-(2-(difluoromethyl)-7-((2-methoxy-3-(4-methylthiazol-2-yl)phenyl)amino)-3H-imidazo[4,5-b]pyridin-5-yl)cyclopropanecarboxamide]
1 to 10 nM	COc1cc(-c2nn(C)cc2C)ccc1Nc1cc(NC(=O)C2CC2)nc2[nH]c(C(F)F)nc12 [I-554, N-(2-(difluoromethyl)-7-((4-(1,4-dimethyl-1H-pyrazol-3-yl)-2-methoxyphenyl)amino)-3H-imidazo[4,5-b]pyridin-5-yl)cyclopropanecarboxamide]
1 to 10 nM	Cc1nc2c(Nc3ccc(C4=NC(C)(C)CS4)cc3S(C)(=O)=O)cc(Nc3cnc(C)c(C)n3)nc2[nH]1 [I-566, N7-(4-(4,4-dimethyl-4,5-dihydrothiazol-2-yl)-2-(methylsulfonyl)phenyl)-N5-(5,6-dimethylpyrazin-2-yl)-2-methyl-3H-imidazo[4,5-b]pyridine-5,7-diamine]
0.5 to 1 nM	CN(c1cc(-c2cncn2C)ccc1Nc1cc(NC(=O)C2CC2(F)F)nc2[nH]c(C(F)F)nc12)S(C)(=O)=O (centres unmarked) [I-380, N-(2-(difluoromethyl)-7-((4-(1-methyl-1H-imidazol-5-yl)-2-(N-methylmethylsulfonamido)phenyl)amino)-3H-imidazo[4,5-b]pyridin-5-yl)-2,2-difluorocyclopropane-1-carboxamide]
0.1 to 0.5 nM	COc1c(Nc2cc(Nc3ccc(C(=O)N4CCCC4)c(C(F)(F)F)n3)nc3[nH]c(C(F)F)nc23)cccc1-c1nnn(C)n1 [I-36, (6-((2-(difluoromethyl)-7-((2-methoxy-3-(2-methyl-2H-tetrazol-5-yl)phenyl)amino)-3H-imidazo[4,5-b]pyridin-5-yl)amino)-2-(trifluoromethyl)pyridin-3-yl)(pyrrolidin-1-yl)methanone]
0.1 to 0.5 nM	Cc1cc(Nc2cc(Nc3ccc(-c4cc(C)n(C)n4)cc3S(C)(=O)=O)c3nc(C(F)F)[nH]c3n2)nc(C)n1 [I-519, 2-(difluoromethyl)-N7-(4-(1,5-dimethyl-1H-pyrazol-3-yl)-2-(methylsulfonyl)phenyl)-N5-(2,6-dimethylpyrimidin-4-yl)-3H-imidazo[4,5-b]pyridine-5,7-diamine]
0.1 to 0.5 nM	COc1c(Nc2cc(NC(=O)C3CC3)nc3[nH]c(C(F)F)nc23)cccc1-c1nnn(C)n1 [I-14, N-(2-(difluoromethyl)-7-((2-methoxy-3-(2-methyl-2H-tetrazol-5-yl)phenyl)amino)-3H-imidazo[4,5-b]pyridin-5-yl)cyclopropanecarboxamide]
> 10 nM	CC1(C)CSC(c2ccc(Nc3cc(NC(=O)C4CC4(F)F)nc4[nH]c(C(F)F)nc34)c(S(C)(=O)=O)c2)=N1 (centres unmarked) [I-351, N-(2-(difluoromethyl)-7-((4-(4,4-dimethyl-4,5-dihydrothiazol-2-yl)-2-(methylsulfonyl)phenyl)amino)-3H-imidazo[4,5-b]pyridin-5-yl)-2,2-difluorocyclopropane-1-carboxamide]
0.1 to 0.5 nM	CN(c1cc(-c2cn(C)cn2)ccc1Nc1cc(NC(=O)C2CC2)nc2[nH]c(C(F)F)nc12)S(C)(=O)=O [I-64, N-(2-(difluoromethyl)-7-((4-(1-methyl-1H-imidazol-4-yl)-2-(N-methylmethylsulfonamido)phenyl)amino)-3H-imidazo[4,5-b]pyridin-5-yl)cyclopropanecarboxamide]
0.5 to 1 nM	Cc1cc(-c2ccc(Nc3cc(Nc4cccc(C(F)(F)F)n4)nc4[nH]c(C(F)F)nc34)c(S(C)(=O)=O)c2)nn1C [I-290, 2-(difluoromethyl)-N7-(4-(1,5-dimethyl-1H-pyrazol-3-yl)-2-(methylsulfonyl)phenyl)-N5-(6-(trifluoromethyl)pyridin-2-yl)-3H-imidazo[4,5-b]pyridine-5,7-diamine]

Structure (SMILES)	Kd
Cc1cc(Nc2cc(Nc3ccc(-c4nc(C)cs4)cc3S(C)(=O)=O)c3nc(C)[nH]c3n2)nc(C)n1 [I-468, N5-(2,6-dimethylpyrimidin-4-yl)-2-methyl-N7-(2-(methylsulfonyl)-4-(4-methylthiazol-2-yl)phenyl)-3H-imidazo[4,5-b]pyridine-5,7-diamine]	0.1 to 0.5 nM
Cc1nc2c(Nc3ccc(C4CC4)cc3P(C)(C)=O)cc(NC(=O)C3CC3)nc2[nH]1 [I-286, N-(7-((4-cyclopropyl-2-(dimethylphosphoryl)phenyl)amino)-2-methyl-3H-imidazo[4,5-b]pyridin-5-yl)cyclopropanecarboxamide]	0.1 to 0.5 nM
Cc1nc2c(Nc3ccc(-c4cncn4C)cc3N(C)S(C)(=O)=O)cc(NC(=O)C3CC3)nc2[nH]1 [I-153, N-(2-methyl-7-((4-(1-methyl-1H-imidazol-5-yl)-2-(N-methylmethylsulfonamido)phenyl)amino)-3H-imidazo[4,5-b]pyridin-5-yl)cyclopropanecarboxamide]	0.1 to 0.5 nM
